Measurements taken from paper PMC9287337 (Scientific Reports, 2022).

Key:
[1] = tested on: p-Smad1/5/8 (Smad phosphorylation); experiment: Western blot of p-Smad normalized to total Smad; type: cell-based; conditions: Mus musculus, 0.5 h, 30 min, read-out: p-Smad level, percent of control
Description: To investigate whether the new indolyl-benzimidazole compounds activate BMP receptor-dependent signaling pathways, the levels of p-Smad in serum-starved C2C12 cells, treated for 30 min with SY-LB-35 and SY-LB-57, were assessed by Western blot analysis. Whole cell lysates of treated C2C12 cells were probed for p-Smad using phospho-specific anti-Smad antibodies. p-Smad levels were normalized against total Smad levels.
(§1) C2C12 cells (3 mL) were seeded into 35 mm dishes at 7.5 × 10^4 cells/mL in complete growth medium, incubated to reach 80% confluence and serum-starved for 16–18 h. […] Thereafter, the cultures were washed with ice-cold 1X TBS for 2 min. Lysis Buffer (Cell Signaling Technology, Danvers, MA, USA) supplemented with 1 mM PMSF (phenylmethylsulphonyl fluoride) was added to the cultures and whole cell lysates were prepared.
Laemmli sample buffer (4X) was added to the whole cell lysates (20 µg) to a final concentration of 1X and heated at 100 °C for 5 min. The samples were immediately cooled on ice for 5 min and centrifuged at 9500 rpm for 2 min at RT. The samples and the Precision Plus Protein Standard (5 µL; Bio-Rad, Hercules, CA, USA) were loaded on 12% SDS polyacrylamide gels. Protein was separated using the Bio-Rad Mini Protean II Gel Electrophoresis System at 135 V. Meanwhile, 0.2 µm nitrocellulose membranes were pre-incubated in cold 1X Transfer Buffer (10 mM Tris/2.5 mM glycine/20% methanol) for at least 30 min. Next, the separated proteins were transferred at 100 V onto the pre-equilibrated nitrocellulose membranes for 1 h in Transfer Buffer, followed by blocking in 5% BSA/0.1% Tween 20/1X TBS for 30 min. The membranes were incubated overnight at 4 °C with the desired primary rabbit monoclonal antibody (p-Smad1/5(S463/465)/9(S465/467), Smad1 (D5907) XP®, p-Akt (Ser473) (D9E) XP®, or Akt (pan) (C67E7), p-SAPK/JNK (Thr183/Tyr185), SAPK/JNK, β-actin (Cell Signaling Technologies, Danvers, MA, USA)) or rabbit polyclonal antibody (phospho-PI3 Kinase p85 (Tyr458)/p55 (Tyr199) antibody (Cell Signaling Technologies, Danvers, MA, USA), p-p38 MAPK, p38 MAPK, p-ERK1, ERK1/2) (Abclonal, Woburn, MA, USA)) in Antibody Dilution Buffer (1% BSA/0.1% Tween 20/1X TBS) and then washed with 1X TBST (0.1% Tween 20/1X TBS) three times for 15 min. HRP-conjugated Goat Anti-Rabbit IgG secondary antibody (Santa Cruz Biotechnology, Inc., Dallas, TX, USA) in Antibody Dilution Buffer was added to the membranes for 1 h at RT followed by three 15-min washes with 1X TBST. Finally, the blots were developed using SuperSignal ™ West Femto HRP Substrate solutions (Thermo Scientific, Rockford, IL, USA) and analysed using the Omega Lum™ G Imaging System (San Francisco, CA, USA). Quantification of chemiluminescent signals was carried out using ImageJ (Image Processing and Analysis in Java 1.8.0_112).

p-p38 = experiment: Western blot of p-p38; type: cell-based, mouse; conditions: 0.01–10 µM, 15 min
Description: (§2) Whole cell lysates were prepared from the treated cultures for Western blot analysis.
as §1
(§3) Laemmli sample buffer (4X) was added to the whole cell lysates (20 µg) to a final concentration of 1X and heated at 100 °C for 5 min. The samples were immediately cooled on ice for 5 min and centrifuged at 9500 rpm for 2 min at RT. The samples and the Precision Plus Protein Standard (5 µL; Bio-Rad, Hercules, CA, USA) were loaded on 12% SDS polyacrylamide gels. […] Finally, the blots were developed using SuperSignal ™ West Femto HRP Substrate solutions (Thermo Scientific, Rockford, IL, USA) and analysed using the Omega Lum™ G Imaging System (San Francisco, CA, USA). Quantification of chemiluminescent signals was carried out using ImageJ (Image Processing and Analysis in Java 1.8.0_112).

p-JNK = experiment: Western blot of p-JNK; type: cell-based, mouse; conditions: 0.01–10 µM, 15 min
Description: as §2, §1, §3

C2C12 cells = experiment: Cell cycle analysis by flow cytometry; type: cell-based, mouse; conditions: 24 h
Description: C2C12 cells were starved in SS medium followed by 24-h treatment with 0.01–10 µM SY-LB-35 or SY-LB-57. The distribution of cell cycle phases was analyzed with respect to the control, untreated cells (Fig. 9). […] Furthermore, the percentage of cells in G0/G1 phase decreased with respect to control following the treatment of C2C12 cells with the indolyl-benzimidazole compounds (****p < 0.0005; ***p < 0.001; **p < 0.01; Fig. 9A). Thus, SY-LB-35 and SY-LB-57 at all tested concentrations shifted the cell cycle in C2C12 cells toward proliferation causing a significant decline in the population of cells in G0/G1 phase and a sharp increase in the percentage of cells present in proliferative phases of the cell cycle (S and G2/M).
Equal numbers (~ 10^6) of cells, from each treatment counted as above were collected, fixed with 4% paraformaldehyde (PFA) for 10 min at RT and pelleted at 300 g for 5 min. Cell pellets were washed with Stain buffer (BD Pharmingen, San Diego, CA, USA) followed by permeabilization with 90% ice-cold methanol for 15 min at 4 °C. The cells were again washed with Stain buffer and the pelleted cells were stained with BD Pharmingen Propidium Iodide/RNase Staining Buffer (0.5 mL/10^6 cells) for 30 min at RT while protected from light. Following two more washes, the pellet was resuspended in 225 µL Stain buffer and the cells were divided into 3 microcentrifuge tubes (75 µL each) for analysis with the Amnis® Flowsight Imaging Flow Cytometer (Austin, TX, USA). IDEAS® software (version 6.2, Seattle, WA, USA) was used to analyse the data files.

`Oc1ccc2[nH]c(-c3nc4ccccc4[nH]3)cc2c1` [SY-LB-35] gave an activity at 0.01 µM [1] of 150%, an activity at 0.1 µM [1] of 170% and an activity at 1 µM [1] of 282%. For the same molecule, the activity at 10 µM [1] was 188%, the p-p38 level (p-p38) was “stimulated increases” and the p-JNK level (p-JNK) was “stimulated increases”. The “Cells in G0/G1 phase” value (C2C12 cells; 0.01 µM) was 76%, the “Cells in G2/M phase” value (C2C12 cells; 0.01 µM) was 13% and the “Cells in S phase” value (C2C12 cells; 0.01 µM) was 11%. For the same molecule, the “Cells in G0/G1 phase” value (C2C12 cells; 0.1 µM) was 76%, the “Cells in G2/M phase” value (C2C12 cells; 0.1 µM) was 12% and the “Cells in S phase” value (C2C12 cells; 0.1 µM) was 12%. For the same molecule, the “Cells in G0/G1 phase” value (C2C12 cells; 1 µM) was 77%, the “Cells in G2/M phase” value (C2C12 cells; 1 µM) was 11% and the “Cells in S phase” value (C2C12 cells; 1 µM) was 12%. For the same molecule, the “Cells in G0/G1 phase” value (C2C12 cells; 10 µM) was 76%, the “Cells in G2/M phase” value (C2C12 cells; 10 µM) was 11% and the “Cells in S phase” value (C2C12 cells; 10 µM) was 12%.

In the case of `COc1ccc2[nH]c(-c3nc4ccccc4[nH]3)cc2c1` [SY-LB-57], the activity at 0.01 µM [1] is reported as 234%, the activity at 0.1 µM [1] is reported as 316% and the activity at 1 µM [1] is reported as 276%. The activity at 10 µM [1] was 357%, the p-p38 level (p-p38) was “stimulated increases” and the p-JNK level (p-JNK) was “stimulated increases”. For the same molecule, the “Cells in G0/G1 phase” value (C2C12 cells; 0.01 µM) was 76%, the “Cells in G2/M phase” value (C2C12 cells; 0.01 µM) was 13% and the “Cells in S phase” value (C2C12 cells; 0.01 µM) was 13%. The “Cells in G0/G1 phase” value (C2C12 cells; 0.1 µM) was 76%, the “Cells in G2/M phase” value (C2C12 cells; 0.1 µM) was 11% and the “Cells in S phase” value (C2C12 cells; 0.1 µM) was 14%. The “Cells in G0/G1 phase” value (C2C12 cells; 1 µM) was 77%, the “Cells in G2/M phase” value (C2C12 cells; 1 µM) was 11% and the “Cells in S phase” value (C2C12 cells; 1 µM) was 12%. The “Cells in G0/G1 phase” value (C2C12 cells; 10 µM) was 79%, the “Cells in G2/M phase” value (C2C12 cells; 10 µM) was 10% and the “Cells in S phase” value (C2C12 cells; 10 µM) was 13%.
